Measured values: patent US20160008380A1, “TARGETING GLUTAMINE METABOLISM IN BRAIN TUMORS” (THE JOHNS HOPKINS UNIVERSITY, priority 2013, published 2016)
Entries after “also recorded” stand apart in the source; their conditions may differ.

What was measured:
[1] = tested on: MYC transduced hindbrain derived human neural stem cell PNET models; test: BrdU proliferation assay, PNET models; type: cell-based; details: FIG. 10B
Protocol: (§1) FIG. 10 A: Acivicin suppresses the growth of MYC containing human neural stem cell PNET models. Graph comparing percent BrdU positivity in mock treated (blue) and with 10 uM acivicin (red) treated cells. […] FIG. 10 B: Acivicin suppresses the growth of MYC containing human neural stem cell PNET models. The graph compares percent BrdU positivity in mock treated (blue) and with 10 uM DON (red) treated cells.
(§2) For measurement of proliferation, cells were treated with the indicated drug for 18 hours and were then pulsed with bromo-deoxyuridine for an additional 6 hours. Cells were triturated to single cells and then cytospun onto microscope slides. After washing cells once with PBS, they were fixed with 4% paraformaldehyde for 15 minutes, permeabilized with 0.1% Triton/PBS, denatured with 0.1N HCl for 15 minutes, then blocked with 5% normal goat serum/PBST or 5% BSA/PBST, and incubated with anti-BrdU (Sigma) antibody at 37 degrees for one hour. After washing three times with PBST, cells were incubated for 45 minutes in the dark with the appropriate Cy-2 or Cy-3 conjugated secondary antibody (Jackson Immunoresearch). […] Multiple high power fields were photographed at random, and the percent BrdU positivity was calculated by counting first BrdU positive cells and then DAPI positive cells and dividing the former by the latter. […]

D425Med [2] = test: Cleaved caspase-3 immunofluorescence (apoptosis); type: cell-based, human; details: n=3, p<0.05
Source text: (§3) FIG. 11: Medulloblastoma cell lines expressing c-MYC and glutaminase (GLS) are sensitive to inhibitors of glutamine metabolism. c-MYC levels positively correlate with GLS levels in D425Med and D283Med (A) as indicated by western blot. The growth of D283Med (B) and D425Med (C) is inhibited when treated with DON or Acivicin as measured by MTS assay. […] Cells were fixed and stained with an anti-cleaved caspase-3 antibody followed by a Cy-3 conjugated secondary and a DAPI counterstain. Multiple images were taken of each treatment and Cy3 positive cells were counted using Adobe Photoshop. Representative images are in D. Acivicin and DON treatment cause an increase the in sub-G1 (apoptotic) population of D425Med (E) and D283Med (F) as measured by flow cytometry.

[3] = tested on: D425 (D425Med, high-MYC medulloblastoma cell line); test: MTS cell growth assay; type: cell-based, human; details: for growth as measured by MTS assay: D425 / D425Med, increasing concentrations
Protocol: (§4) FIG. 4: Growth as measured by MTS assay after 3 days of acivicin treatment at increasing doses. The low-MYC cell line, UW228 (FIG. 4A), is not sensitive to treatment with acivicin. The high-MYC cell lines, D283 (FIG. 4B) and D425 (FIG. 4C) are sensitive to acivicin, showing an inhibition of growth of approximately 50% or more at a concentration of 10 uM acivicin.
as §3
(§5) For relative cell growth assays, cells were seeded in 96-well plates in triplicate at densities of 5000 cells per well. Cell proliferation was monitored at the indicated number of days using the colorimetric CellTiter 96 MTS assay (Promega, Madison, Wis.).
(§6) We tested this hypothesis using UW228 (low MYC) and D283 and D425 (high MYC) medulloblastoma cell lines.

[4] = tested on: D283 (D283Med, high-MYC medulloblastoma cell line); test: MTS cell growth assay; type: cell-based, human; details: for growth as measured by MTS assay: D283 / D283Med, increasing concentrations
Protocol: as §4, §3, §5, §6

[5] = tested on: KNS42 (low-MYC glioma cell line); test: MTS cell growth assay; type: cell-based; details: KNS42, 3 days, same concentrations as SF188 and UW479
Protocol: FIG. 9: MTS assay showing sensitivity of high MYC SF188 and […] glioma cell lines and insensitivity of low-MYC KNS42 to glutamine metabolic inhibitors DON and acivicin. Cell growth was measured over 3 days at increasing concentrations of drug.
as §5

[6] = tested on: hindbrain derived neurospheres transduced with oncogenes not including MYC; test: BrdU proliferation assay, PNET models; type: cell-based, human; details: 10 uM DON, no MYC
Protocol: as §1, §2

[7] = tested on: UW228 (low-MYC medulloblastoma cell line); test: MTS cell growth assay; type: cell-based, human; details: UW228, 3 days of treatment at increasing concentrations
Protocol: as §4, §5, §6

[8] = tested on: neural stem cell models of medulloblastoma; test: Cleaved caspase-3 staining (apoptosis); type: cell-based, human; details: 72 h treatment, p<0.05
Protocol: (§7) Cells were treated with acivicin or DON for 72 h. The cells were then fixed and stained with an antibody for cleaved caspase-3, followed by a Cy-3 conjugated secondary and a DAPI counterstain. Multiple images were taken of each treatment and cleaved-caspase-3 positive cells counted using Adobe Photoshop. […] Control cells were unaffected by treatment. Representative images are seen in (B and D). Images colorized with Adobe Photoshop.

[9] = tested on: Control cells (neural stem cells); test: Cleaved caspase-3 staining (apoptosis); type: cell-based, human; details: 72 h treatment
Protocol: as §7

D425Med [10] = test: Sub-G1 (apoptotic) population by flow cytometry; type: cell-based, human
Source text: as §3

D283Med = test: Sub-G1 (apoptotic) population by flow cytometry; type: cell-based, human
Source text: as §3

[11] = administered orally at therapeutically effective levels; cited from earlier work
[12] = tested on: MYC transduced cortex derived human neural stem cell PNET models; test: BrdU proliferation assay, PNET models; type: cell-based; details: FIG. 10A
Protocol: as §1, §2

[13] = tested on: cortex derived neurospheres transduced with oncogenes not including MYC; test: BrdU proliferation assay, PNET models; type: cell-based, human; details: 10 uM acivicin, no MYC
Protocol: as §1, §2

D283Med xenografts = test: D283Med orthotopic and flank xenografts in nude mice; type: in vivo; details: IP 75 mg/kg acivicin 4 times a week, four weeks
Protocol: FIG. 13: Mice treated with Acivicin develop fewer and smaller flank tumors than untreated mice. Ten immunodeficient (nude) mice received orthotopic and flank xenografts of D283Med. Mice in the treatment group (n=5) were treated 4 times a week with an IP dose of 75 mg/kg of acivicin each time. Mice in the control group (n=5) received an IP injection of sterile PBS. After four weeks, all mice were sacrificed and brains and any flank tumors removed. 100% of the control group developed flank tumors, while only 40% of the treatment group developed flank tumors. The PBS treated mice also developed larger flank tumors (A, bars indicate mean tumor size, error bars SD).

[14] = tested on: UW228 cells engineered to express MYC (UW228-UWM13); test: MTS cell growth assay; type: cell-based, human; details: 3 days of drug treatment
Protocol: Values show mean (n=3) and error bars indicated standard deviation. FIG. 5B: The percent decrease in optical density between no drug and 50 uM acivicin. Error bars indicate SEM. *P=0.00029.
as §5
We next investigated if increasing MYC and GLS expression in a low MYC cell line could confer sensitivity to glutamine anti-metabolites.

[15] = tested on: human neural stem cells transformed without MYC (SV40 control); test: BrdU proliferation assay; type: cell-based
Protocol: (§8) FIG. 6: Suppression of proliferation of MYC-driven human neural stem cell models of medulloblastoma by acivicin. Two human neurosphere lines were treated with 10 uM acivicin for four days. On the fourth day, the spheres were pulsed with BrdU for 6 h. Following the pulse, the spheres were made single cells and fixed onto glass slides. Staining was performed using an anti-BrdU antibody followed by a secondary antibody conjugated to Cy3 and a DAPI counterstain. Images were taken at 400× (FIG. 6A, top panel). DAPI positive and BrdU positive (red) cells in the image were counted using Adobe Photoshop (FIG. 6A, bottom panel). An average of % positive BrdU cells was taken from three images. Error bars indicate SEM. *p=0.012.
(§9) FIG. 14: Acivicin decreases proliferation in neural stem cell models of MYC-driven medulloblastoma. Human neural stem cells derived from the developing cerebellum were transduced with lentiviral vectors coding for oncogenic elements associated with high-risk, MYC-driven medulloblastoma. SV40 was used as a control to immortalize the cells. The transduced neural stem cells were treated with acivicin for 72 h, and pulsed with bromodeoxyuridine for the final 6 hours of treatment. Cells were fixed and stained with an anti-BrdU antibody followed by a Cy-3 conjugated secondary and a DAPI counterstain. Multiple images were taken of each treatment and BrdU positive cells were counted using Adobe Photoshop. […] Representative images are in B.
(§10) For measurement of proliferation, cells were treated with the indicated drug for 18 hours and were then pulsed with bromo-deoxyuridine for an additional 6 hours. Cells were triturated to single cells and then cytospun onto microscope slides. After washing cells once with PBS, they were fixed with 4% paraformaldehyde for 15 minutes, permeabilized with 0.1% Triton/PBS, denatured with 0.1N HCl for 15 minutes, then blocked with 5% normal goat serum/PBST or 5% BSA/PBST, and incubated with anti-BrdU (Sigma) antibody at 37 degrees for one hour. After washing three times with PBST, cells were incubated for 45 minutes in the dark with the appropriate Cy-2 or Cy-3 conjugated secondary antibody (Jackson Immunoresearch). Cells were counterstained with DAPI and mounted with anti-fade (Vectastain). Multiple high power fields were photographed at random, and the percent BrdU positivity was calculated by counting first BrdU positive cells and then DAPI positive cells and dividing the former by the latter.

[16] = tested on: MYC-driven human neural stem cell models of medulloblastoma (cerebellar neurospheres); test: BrdU proliferation assay; type: cell-based
Protocol: as §8, §9, §10

[17] = tested on: non-MYC transformed neurospheres; test: Cell cycle analysis (sub 2N population, flow cytometry); type: cell-based, human; details: 3 days of treatment, propidium iodide flow cytometry
Protocol: (§11) FIG. 7: Cell cycle analysis was performed using a Guava flow cytometer following 3 days of treatment in acivicin. Neurospheres transfected with MYC show an increase in the sub 2N population following 3 days of treatment with acivicin, indicating an increase in apoptosis after treatment.
(§12) We also asked this question using human neural stem cell models of aggressive brain tumors. We compared the sensitivity of human neural stem cells transduced with a package of oncogenes that contain MYC versus those that were transformed without using MYC.

[18] = tested on: Neurospheres transfected with MYC; test: as above; type: cell-based, human; details: 3 days of treatment, propidium iodide flow cytometry
Protocol: as §11, §12

[19] = 10 uM acivicin, four days, BrdU pulse 6 h

[N-]=[N+]=CC(=O)CC[C@H](N)C(=O)O [DON, 6-Diazo-5-oxo-L-norleucine]
sensitivity of MYC driven PNET models [1]: sensitive
apoptosis (cleaved caspase-3 immunofluorescence) (D425Med [2]): increase apoptosis
growth as measured by MTS assay [3]: suppressed; also recorded: inhibited
growth as measured by MTS assay [4]: suppressed; also recorded: inhibited
reduction in growth [5]: modest reduction
reduction in proliferation [6]: did not respond strongly; also recorded: slight reduction
growth as measured by MTS assay (sensitivity) [7]: relatively resistant
apoptosis (cleaved-caspase-3 positive cells) [8]: significant increase in apoptosis
apoptosis (cleaved-caspase-3 positive cells) [9]: unaffected
sub-G1 (apoptotic) population (D425Med [10]): increase
sub-G1 (apoptotic) population (D283Med): increase
gastrointestinal (GI) toxicity [11]: results in gastrointestinal (GI) toxicity

N[C@H](C(=O)O)[C@@H]1CC(Cl)=NO1 [acivicin, (2S)-Amino[(5S)-3-chloro-4,5-dihydro-1,2-oxazol-5-yl]ethanoic acid]
sensitivity of MYC driven PNET models [12]: sensitive
apoptosis (cleaved caspase-3 immunofluorescence) (D425Med [2]): increase apoptosis
growth as measured by MTS assay [3]: suppressed
growth as measured by MTS assay ([3]; listed as Acivicin): inhibited
inhibition at 10 µM ([3]; Homo sapiens, D425 Med, 72 h, D425, 10 uM acivicin, 3 days): ≥ 50%
growth as measured by MTS assay [4]: suppressed
growth as measured by MTS assay ([4]; listed as Acivicin): inhibited
inhibition at 10 µM ([4]; Homo sapiens, 72 h, D283, 10 uM acivicin, 3 days): ≥ 50%
reduction in growth [5]: modest reduction
reduction in proliferation [13]: did not respond strongly; also recorded: modest reduction
growth as measured by MTS assay (sensitivity) [7]: relatively resistant; also recorded: virtually no suppression of growth; also recorded: not sensitive
flank tumor size / tumor growth (D283Med xenografts; vs PBS, 75 mg/kg): markedly smaller tumors; also recorded: inhibits tumor growth
mice that developed flank tumors (D283Med xenografts; control group 100%): 40%
growth compared to parental UW228 cells (MTS) [14]: decreased growth
apoptosis (cleaved-caspase-3 positive cells) [8]: significant increase in apoptosis
apoptosis (cleaved-caspase-3 positive cells) [9]: unaffected
sub-G1 (apoptotic) population (D425Med [10]): increase
sub-G1 (apoptotic) population (D283Med): increase
change in proliferation (% BrdU positive cells) [15, 19]: insensitive; also recorded: no change
proliferation (BrdU positive cells) ([15]; SV40 control, acivicin 72 h, BrdU for the final 6 hours): no change
reduction of proliferation (% BrdU positive cells) [16, 19]: ~30%
growth after treatment (FIG. 6) ([16]; MYC-transformed human neural stem cells): decreased growth
proliferation (BrdU positive cells) ([16]; acivicin 72 h, BrdU for the final 6 hours): significant decrease
sub 2N population (apoptosis) [17]: did not show an increase; also recorded: do not show any increase
sub 2N population (apoptosis) [18]: increased apoptosis; also recorded: increase
